Results as given in patent US20040039157A1, “Anti-angiogenic peptides” (priority 2000, published 2004).

How the values were obtained:
CT26 tumours = assay: In vivo efficacy on growth of subcutaneous CT26 tumours; design: species or system Balb/c mice; conditions: daily ip α1-24, p<0.001
Method: Experiments were performed on six-week-old Balb/C mice weighing 15 g, obtained from Sheffield Field Laboratories. All experiments were approved by the Home Office Project Licence Number PPL50/1414.
The CT26 cell line was maintained by in vitro passage in Dulbecco's Minimal Eagles Medium containing 10% foetal calf serum, and 1% penicillin and streptomycin and maintained at 37° C. in humidified atmosphere of 5% CO2 in air. The cell line was routinely checked to ensure freedom from mycoplasma (Mycoplasma rapid detection system, Gena-Probe Incorporated, U.S.A.).
Animals were anaesthetised with an intraperitoneal injection of diazepam (0.5 mg/ml, Dumex Ltd.) and hypnorm (fentanyl citrate 0.0315 mg/ml and fluanisone 1 mg/ml, Janssen Pharmaceutical Ltd.) in the ratio of 1:1 at a volume of 0.1 ml/200 g body weight, with supplementation as required to maintain adequate anaesthesia. […] Tumour growth and animal weights were monitored daily.
Tumour growth was measured daily and when the majority of animals in the cohort had tumour volumes of >100 mm^3 but <350 mm^3 animals were divided into experimental and control groups. […]
Tumour volumes were assessed by calliper measurements of the perpendicular diameters and volumes estimated using the equation: […]
where a is the smaller and b the larger diameter Animals were weighed on a daily basis and the general well being monitored.

SVEC4-10 cells = assay: Tubule formation assay on GF-reduced Matrigel, SVEC4-10 cells; assay type: cell-based, Murine; conditions: FIG. 4, 6 h
Method: Adult human dermal microvascular endothelial cells (HuDMECs) were obtained commercially (TCS Biologicals, Buckinghamshire, United Kingdom) and cultured in microvascular endothelial cell growth medium (EGM). This medium contains heparin (10 ng/ml), hydrocortisone, human epidermal growth factor (10 ng/ml), human fibroblast growth factor (10 ng/ml) (such endothelial growth factors are necessary for routine passaging of HuDMECs in culture) and dibutyryl cyclic AMP. This was supplemented with 5% heat-inactivated FCS, 50 μg/ml gentamicin and 50 ng/ml amphotericin B (TCS Biologicals, United Kingdom). Murine endothelial cells (SVEC 4-10) were obtained from the ATCC and cultured in DMEM+10% FCS. Cells were grown at 37° C. in a 100% humidified incubator with a gas phase of 5% CO2 and routinely screened for Mycoplasma. Prior to their use in the assays indicated below, HuDMECs were grown to 80% confluency, incubated in DMEM+1% FCS for 2 h, then harvested with 0.05% trypsin solution, washed twice and resuspended to the cell density required for each assay (see below).
24 well plates were coated with 30 μl/well of growth factor-reduced (GF-reduced) Matrigel (Becton Dickinson Labware, Bedford, Mass.). […] Tubule formation was assessed by counting the number of tubule branches and the total area covered by tubules in each field of view using image analysis software supplied by Scion Image.

Question: With “ADSGEGDFLAEGGGVRGPRVVERH (ADSGEGDFLAEGGGVRGPRVVERH) [α1-24, 24 amino acid peptide from the amino terminus of the fibrinogen α chain]” as the sequence, how does the final tumour volume (CT26 tumours; Example 1, day 14, starting volume 235±30, vehicle control final 2245±371) read?
Answer: 1341±145 mm^3

Question: What about the final tumour volume (CT26 tumours; Example 2, day 12, starting volume 338±39, vehicle control final 3072±255) of the same sequence?
Answer: 2029±504 mm^3

Question: And the “tubule formation (area covered by tubules)” value (SVEC4-10 cells; absence of growth factors)?
Answer: significantly (p<0.03) reduced tubule formation

Question: What about the “tubule formation (area covered by tubules)” value (SVEC4-10 cells; presence of growth factors (VEGF 10 ng/ml or bFGF 10 ng/ml)) of the same sequence?
Answer: significantly (p<0.03) reduced tubule formation
